Experimental data: patent US20040143007A1, “Malononitrile compounds and their use as pesticides” (priority 2001, published 2004)

Tests used:
Format in all cases: in vivo
[1] = test system: Culex pipiens pallens (common mosquito); test: Pesticidal test against Culex pipiens pallens, larvae in treated water (Test Example 7); settings: 24 h, 0.7 ml of 500 ppm test liquid in 100 ml water (active ingredient 3.5 ppm), twenty final-instar larvae, after 1 days
Experimental: In 100 ml of ion-exchanged water, the test liquid had been prepared as described above, was added dropwise in an amount of 0.7 ml (the concentration of active ingredient was 3.5 ppm). Twenty final-instar larvae of Culex pipiens pallens (common mosquito) were set free in the solution. After 1 days, their survival was examined to determine the mortality.

[2] = test system: Blattalla germanica (German cockroach); test: Pesticidal test against Blattalla germanica, treated filter paper with sucrose bait (Test Example 6); settings: Blattella germanica, 144 h; active ingredient 500 ppm, 0.7 ml on filter paper; two male adults; after 6 days
From the text: Two male adults of Blattalla germanica (German cockroach) were set free in the polyethylene cup, which was then kept covered. After 6 days, their survival was examined to determine the mortality.

[3] = test system: Diabrotica undecimpunctata (southern corn rootworm); test: Pesticidal test against Diabrotica undecimpunctata, filter paper with corn seed and eggs (Test Example 4); settings: active ingredient 50 ppm, 1 ml on filter paper, 30 to 50 eggs, 25° C.
Experimental: One germinated seed of corn and 30 to 50 eggs of Diabrotica undecimpunctata (southern corn rootworm) was placed on the filter paper in the polyethylene cup, which was then kept covered and left in a room at 25° C. On the 6th day after, the number of surviving larvae of Diabrotica undecimpunctata was examined.

[4] = test system: Musca domestics (house fly); test: Pesticidal test against Musca domestics, treated filter paper with sucrose bait (Test Example 5); settings: active ingredient 500 ppm, 0.7 ml on filter paper, ten female adults, after 24 hours
Experimental: Ten female adults of Musca domestics (house fly) were set free in the polyethylene cup, which was then kept covered. After 24 hours, their survival was examined to determine the mortality.

Question: How did the mortality at 3.5 µg/mL [1] turn out when `N#CC(C#N)(Cc1ccc(Cl)cc1)CC1CC1` [Compound 1, 2-(4-chlorobenzyl)-2-(cyclopropylmethyl)malononitrile] was run?
Answer: 100%

Question: What about the mortality at 500 ppm [2] of the same molecule?
Answer: 100%

Question: What about the “number of surviving pests on the 6th day after” value [3] of the same molecule?
Answer: 0

Question: How did the mortality at 3.5 µg/mL [1] turn out when `N#CC(C#N)(Cc1ccc(OC(F)(F)F)cc1)CC1CC1` [Compound 2, 2-(cyclopropylmethyl)-2-(4-(trifluoromethoxy)benzyl)malononitrile] was run?
Answer: 100%

Question: And the mortality at 500 ppm [2]?
Answer: 100%

Question: And the mortality at 500 ppm [4]?
Answer: 100%

Question: What about the “number of surviving pests on the 6th day after” value [3] of the same molecule?
Answer: 0

Question: For `N#CC(C#N)(Cc1ccc(OC(F)(F)F)cc1)CC1CCC1` [Compound 3, 2-(cyclobutylmethyl)-2-(4-(trifluoromethoxy)benzyl)malononitrile], which mortality at 3.5 µg/mL [1] is on record?
Answer: 100%

Question: And the mortality at 500 ppm [4]?
Answer: 100%

Question: With `N#CC(C#N)(Cc1ccc(SC(F)(F)F)cc1)CC1CCC1` [Compound 4, 2-(cyclobutylmethyl)-2-(4-(trifluoromethylthio)benzyl)malononitrile] as the molecule, how does the mortality at 3.5 µg/mL [1] read?
Answer: 100%

Question: What about the mortality at 500 ppm [2] of the same molecule?
Answer: 100%

Question: What about the mortality at 500 ppm [4] of the same molecule?
Answer: 100%

Question: How did the mortality at 3.5 µg/mL [1] turn out when `N#CC(C#N)(Cc1ccc(OC(F)(F)F)cc1)CC1CC1(Cl)Cl` (stereo not drawn) [Compound 5, 2-((2,2-dichlorocyclopropyl)methyl)-2-(4-(trifluoromethoxy)benzyl)malononitrile] was run?
Answer: 100%

Question: And the mortality at 500 ppm [4]?
Answer: 100%

Question: For `N#CC(C#N)(Cc1ccc(C(F)(F)F)cc1)CC1CC1` [Compound 6, 2-(cyclopropylmethyl)-2-(4-(trifluoromethyl)benzyl)malononitrile], which mortality at 3.5 µg/mL [1] is on record?
Answer: 100%

Question: And the mortality at 500 ppm [2]?
Answer: 100%

Question: And the mortality at 500 ppm [4]?
Answer: 100%

Question: How did the mortality at 3.5 µg/mL [1] turn out when `N#CC(C#N)(Cc1ccc(C(F)(F)F)cc1)CC1CCC1` [Compound 7, 2-(cyclobutylmethyl)-2-(4-(trifluoromethyl)benzyl)malononitrile] was run?
Answer: 100%

Question: What about the mortality at 500 ppm [2] of the same molecule?
Answer: 100%

Question: And the mortality at 500 ppm [4]?
Answer: 100%

Question: Which mortality at 3.5 µg/mL [1] does the source give for `N#Cc1ccc(CC(C#N)(C#N)CC2CC2(Cl)Cl)cc1` (stereo not drawn) [Compound 9, 2-(4-cyanobenzyl)-2-((2,2-dichlorocyclopropyl)methyl)malononitrile] here?
Answer: 100%

Question: Which results are given for `N#CC(C#N)(Cc1ccc(C(F)(F)F)cc1)CC1CC1(Cl)Cl` (stereo not drawn) [Compound 10, 2-((2,2-dichlorocyclopropyl)methyl)-2-(4-(trifluoromethyl)benzyl)malononitrile]?
Answer: mortality at 3.5 µg/mL [1]: 100%; mortality at 500 ppm [2]: 100%; mortality at 500 ppm [4]: 100%
